Experimental data as given in PubChem BioAssay (NCI).
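Values below derive from 48-hour exposures of cells grown in 96-well plates, with endpoints linearly interpolated between the two concentrations bracketing the appropriate inhibition level. The concentration for 50% growth inhibition is given as GI50. TGI: concentration producing complete growth inhibition.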

How the values were obtained:
Experiment in all cases: NCI anticancer screen, dose series, 48 h
SK-MEL-2 melanoma = system: SK-MEL-2 melanoma
A549 NSCLC = system: A549 NSCLC
OVCAR-4 ovarian = system: OVCAR-4 ovarian
IGROV1 ovarian = system: IGROV1 ovarian
BT-549 breast = system: BT-549 breast
NCI-H226 lung = system: NCI-H226 lung
HOP-62 NSCLC = system: HOP-62 NSCLC
LOX IMVI melanoma = system: LOX IMVI melanoma
CAKI-1 renal = system: CAKI-1 renal
SF-295 CNS = system: SF-295 CNS
KM12 colon = system: KM12 colon
UACC-257 melanoma = system: UACC-257 melanoma
786-0 renal = system: 786-0 renal
HS 578T breast = system: HS 578T breast
SK-MEL-5 melanoma = system: SK-MEL-5 melanoma
NCI-H460 lung = system: NCI-H460 lung
U251 CNS = system: U251 CNS
HCC-2998 colon = system: HCC-2998 colon
HOP-92 NSCLC = system: HOP-92 NSCLC
MCF7 breast = system: MCF7 breast
M14 melanoma = system: M14 melanoma
SK-MEL-28 melanoma = system: SK-MEL-28 melanoma
UACC-62 melanoma = system: UACC-62 melanoma
RXF 393 renal = system: RXF 393 renal
NCI/ADR-RES ovarian = system: NCI/ADR-RES ovarian
T-47D breast = system: T-47D breast
OVCAR-8 ovarian = system: OVCAR-8 ovarian
COLO 205 colon = system: COLO 205 colon
OVCAR-3 ovarian = system: OVCAR-3 ovarian
HT29 colon = system: HT29 colon
HCT-116 colon = system: HCT-116 colon
SF-539 CNS = system: SF-539 CNS
SNB-75 CNS = system: SNB-75 CNS
SNB-19 CNS = system: SNB-19 CNS
TK-10 renal = system: TK-10 renal
CCRF-CEM leukemia = system: CCRF-CEM leukemia
MDA-MB-435 = system: MDA-MB-435
PC-3 prostate = system: PC-3 prostate
OVCAR-5 ovarian = system: OVCAR-5 ovarian
ACHN renal = system: ACHN renal
SN12C renal = system: SN12C renal
SR leukemia = system: SR leukemia
HCT-15 colon = system: HCT-15 colon
MALME-3M melanoma = system: MALME-3M melanoma
DU-145 prostate = system: DU-145 prostate
MDA-MB-231 breast = system: MDA-MB-231 breast
NCI-H522 lung = system: NCI-H522 lung
HL-60(TB) leukemia = system: HL-60(TB) leukemia
K-562 leukemia = system: K-562 leukemia
SK-OV-3 ovarian = system: SK-OV-3 ovarian
SW-620 colon = system: SW-620 colon
RPMI-8226 leukemia = system: RPMI-8226 leukemia
UO-31 renal = system: UO-31 renal
NCI-H23 lung = system: NCI-H23 lung
MOLT-4 leukemia = system: MOLT-4 leukemia
A498 renal = system: A498 renal
SF-268 CNS = system: SF-268 CNS

CC1=C2C[C@H]3[C@@H](CC[C@@H]4CC(NS(C)(=O)=O)CC[C@@]43C)[C@@H]2CC[C@@]2(C1)O[C@@H]1C[C@H](C)CN[C@H]1[C@H]2C (some centres undefined)
GI50 (SK-MEL-2 melanoma): 6.76 µM | TGI (SK-MEL-2 melanoma): 15.4 µM | GI50 (A549 NSCLC): 4.26 µM | TGI (A549 NSCLC): 17.5 µM | GI50 (OVCAR-4 ovarian): 1.66 µM | TGI (OVCAR-4 ovarian): 4.79 µM | GI50 (IGROV1 ovarian): 11.9 µM | TGI (IGROV1 ovarian): 26 µM | GI50 (BT-549 breast): 12 µM | TGI (BT-549 breast): 26 µM | GI50 (NCI-H226 lung): 5.44 µM | TGI (NCI-H226 lung): 21.1 µM | GI50 (HOP-62 NSCLC): 11.3 µM | TGI (HOP-62 NSCLC): 24.8 µM | GI50 (LOX IMVI melanoma): 5.48 µM | TGI (LOX IMVI melanoma): 16.3 µM | GI50 (CAKI-1 renal): 7.63 µM | TGI (CAKI-1 renal): 22 µM | GI50 (SF-295 CNS): 12.5 µM | TGI (SF-295 CNS): 26.1 µM | GI50 (KM12 colon): 9.22 µM | TGI (KM12 colon): 22.6 µM | GI50 (UACC-257 melanoma): 6.28 µM | TGI (UACC-257 melanoma): 18.9 µM | GI50 (786-0 renal): 8.94 µM | TGI (786-0 renal): 24.2 µM | GI50 (HS 578T breast): 11.8 µM | TGI (HS 578T breast): 37.5 µM | GI50 (SK-MEL-5 melanoma): 2.18 µM | TGI (SK-MEL-5 melanoma): 5.63 µM | GI50 (NCI-H460 lung): 4.81 µM | TGI (NCI-H460 lung): 16 µM | GI50 (U251 CNS): 6.92 µM | TGI (U251 CNS): 20.8 µM | GI50 (HCC-2998 colon): 14.1 µM | TGI (HCC-2998 colon): 28.2 µM | GI50 (HOP-92 NSCLC): 1.15 µM | TGI (HOP-92 NSCLC): 12.7 µM | GI50 (MCF7 breast): 3.49 µM | TGI (MCF7 breast): 14.9 µM | GI50 (M14 melanoma): 7.92 µM | TGI (M14 melanoma): 22.6 µM | GI50 (SK-MEL-28 melanoma): 4.81 µM | TGI (SK-MEL-28 melanoma): 11.3 µM | GI50 (UACC-62 melanoma): 9.27 µM | TGI (UACC-62 melanoma): 21.8 µM | GI50 (RXF 393 renal): 3.65 µM | TGI (RXF 393 renal): 15.6 µM | GI50 (NCI/ADR-RES ovarian): 12.2 µM | TGI (NCI/ADR-RES ovarian): 28.3 µM | GI50 (T-47D breast): 2.68 µM | TGI (T-47D breast): 7.51 µM | GI50 (OVCAR-8 ovarian): 12 µM | TGI (OVCAR-8 ovarian): 25.7 µM | GI50 (COLO 205 colon): 2.25 µM | TGI (COLO 205 colon): 4.43 µM | GI50 (OVCAR-3 ovarian): 4 µM | TGI (OVCAR-3 ovarian): 14 µM | GI50 (HT29 colon): 3.5 µM | TGI (HT29 colon): 11.3 µM | GI50 (HCT-116 colon): 4.77 µM | TGI (HCT-116 colon): 18.4 µM | GI50 (SF-539 CNS): 12.9 µM | TGI (SF-539 CNS): 25.9 µM | GI50 (SNB-75 CNS): 3.07 µM | TGI (SNB-75 CNS): 15.9 µM | GI50 (SNB-19 CNS): 12.5 µM | TGI (SNB-19 CNS): 27 µM | GI50 (TK-10 renal): 11.3 µM | TGI (TK-10 renal): 24.4 µM | GI50 (CCRF-CEM leukemia): 7.71 µM | TGI (CCRF-CEM leukemia): 28.4 µM | GI50 (MDA-MB-435): 8.1 µM | TGI (MDA-MB-435): 22.8 µM | GI50 (PC-3 prostate): 4.39 µM | TGI (PC-3 prostate): 17.3 µM | GI50 (OVCAR-5 ovarian): 13.7 µM | TGI (OVCAR-5 ovarian): 27.5 µM | GI50 (ACHN renal): 3.85 µM | TGI (ACHN renal): 14.6 µM | GI50 (SN12C renal): 10.4 µM | TGI (SN12C renal): 23.4 µM | GI50 (SR leukemia): 3.38 µM | TGI (SR leukemia): 12 µM | GI50 (HCT-15 colon): 5.9 µM | TGI (HCT-15 colon): 21.4 µM | GI50 (MALME-3M melanoma): 9.75 µM | TGI (MALME-3M melanoma): 25.2 µM | GI50 (DU-145 prostate): 14.4 µM | TGI (DU-145 prostate): 28 µM | GI50 (MDA-MB-231 breast): 5.68 µM | TGI (MDA-MB-231 breast): 18.8 µM | GI50 (NCI-H522 lung): 14.3 µM | TGI (NCI-H522 lung): 29 µM | GI50 (HL-60(TB) leukemia): 6.12 µM | TGI (HL-60(TB) leukemia): 21.4 µM | GI50 (K-562 leukemia): 4.25 µM | TGI (K-562 leukemia): 31.6 µM | GI50 (SK-OV-3 ovarian): 8.49 µM | TGI (SK-OV-3 ovarian): 21.2 µM | GI50 (SW-620 colon): 13.8 µM | TGI (SW-620 colon): 28.9 µM | GI50 (RPMI-8226 leukemia): 7.62 µM | TGI (RPMI-8226 leukemia): 29.5 µM | GI50 (UO-31 renal): 10.7 µM | TGI (UO-31 renal): 23.5 µM | GI50 (NCI-H23 lung): 16.3 µM | TGI (NCI-H23 lung): 33.2 µM | GI50 (MOLT-4 leukemia): 5.5 µM | TGI (MOLT-4 leukemia): 23.2 µM | GI50 (A498 renal): 13.2 µM | TGI (A498 renal): 26.8 µM | GI50 (SF-268 CNS): 12.1 µM | TGI (SF-268 CNS): 26.6 µM
